Source: patent publication US8623407B2, “Gabapentin-containing solid compositions and process for preparing the same” (Pfizer Inc., priority 1998, dated 2014)

Assays:
Format in all cases: physicochemical
[1] = Dehydration reaction (lactam formation) when maintained in a dried state at 105° C.; conditions: 105° C. over 2-3 hours
Description: To the contrary, in γ-aminobutyric acid derivatives having no or a less bulky substituent at the 3-position thereof, such as γ-aminobutyric acid or 4-amino-3-hydroxy-butanoic acid, the dehydration reaction is not brought about even when maintained in a dried state such as at a temperature of 105° C. over 2-3 hours, and the formation of 4-cyclohexylpyrrolidone (the corresponding lactam form) is not observed. In other words, in the 4-amino-3-substituted-butanoic acid derivative wherein the substituent at the 3-position thereof has a bulky structure, the dehydration reaction could easily be brought about between the amino group and the carboxyl group within the molecule.

[2] = Storage stability of baclofen samples: dehydrated condensates content by HPLC; conditions: based on baclofen
Description: The baclofen powder samples G and H obtained as described above and untreated baclofen crystals were stored under the conditions as defined in the following Table 8 and then a content of dehydrated condensates formed in each of the samples was determined by means of HPLC. In this Example, the content of the dehydrated condensates is expressed in terms of % by weight, based on baclofen.

[3] = Storage stability of pregabalin samples: dehydrated condensate content by HPLC; conditions: Table 9, based on pregabalin
Description: The samples I, J and K obtained as described above and untreated pregabalin crystals were stored under the conditions as defined in the following Table 9 and then a content of the dehydrated condensate formed in each of the samples was determined by means of HPLC. In the present Example and the following Example 6, a content of the dehydrated condensate is expressed in terms of % by weight, based on pregabalin.
The samples L and M obtained as described above were stored under the conditions as defined in the following Table 10 and then a content of the dehydrated condensate formed in each of the samples was determined by means of HPLC.

## NCC(O)CC(=O)O (stereo not drawn) [4-amino-3-hydroxy-butanoic acid]
[1]
  formation of 4-cyclohexylpyrrolidone (the corresponding lactam form): not observed

## NCC(CC(=O)O)c1ccc(Cl)cc1 (stereo not drawn) [Untreated Baclofen]
[2]; 60° C./1 week (sealed)
  content of dehydrated condensates: 0.36 % by weight
[2]; 60° C./2 weeks (sealed)
  content of dehydrated condensates: 0.57 % by weight
[2]; 60° C./3 weeks (sealed)
  content of dehydrated condensates: 0.70 % by weight
[2]; When Initiated
  content of dehydrated condensates: 0.10 % by weight

## CC(C)CC(CN)CC(=O)O (stereo not drawn) [Untreated Pregabalin, 5-methyl-3-aminomethyl-hexanoic acid]
[3]; 60° C./1 week (sealed)
  content of the dehydrated condensate: 0.001 % by weight
[3]; 60° C./2 weeks (sealed)
  content of the dehydrated condensate: 0.001 % by weight
[3]; When initiated
  content of the dehydrated condensate: <0.001 % by weight

## NCCCC(=O)O [γ-aminobutyric acid]
[1]
  formation of 4-cyclohexylpyrrolidone (the corresponding lactam form): not observed
